Drawing on US9809602B2, “Compounds for treating viral infections” (INSTITUT PASTEUR KOREA, priority 2014, dated 2017), this text covers EC50 for 50 compounds.

A value given as a limit tells only on which side of the number the result lay.

For the first assay, the system named is genotype 1/2 chimeric cell culture derived HCV (HCVcc). Put plainly: Genotype 1/2 chimeric HCVcc assay (nano-luciferase, HCV replication). The note with it: Hepatitis C virus. It counts as cell-based. In short, it runs like this:
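Huh-7.5 cells (2400/well) pretreated 2 h with serially diluted compound, then infected with nano-luciferase genotype 1a/2a (JFH-1) chimeric HCVcc. At 72 h post infection, nano-luciferase reported replication and cellular ATP reported cytotoxicity; EC50 and CC50 by non-linear regression.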
What is called EC50 is the concentration giving half of the maximal effect. A low value points to greater potency. For `O=C(NCCCN1CCC(N2CCCCC2)CC1)c1ccc(C2CCCCC2)cc1` [Compound 1003], the EC50 fell in the range of 100 to 1000 nM.
`O=C(NCCCN1CCC(N2CCCCC2)CC1)c1ccc(-c2ccc3cc[nH]c3c2)cc1` [Compound 1121] returned an EC50 of 100 to 1000 nM.
On the same count and under the same terms, the value for `O=C(NCCCN1CCC(N2CCCCC2)CC1)c1ccc(-c2ccccc2OC(F)(F)F)cc1` [Compound 1149] was 100 to 1000 nM.
In the case of `O=C(NCCCN1CCC(N2CCCCC2)CC1)c1ccc(-c2ccccc2Cl)cc1` [Compound 1146], the EC50 lay in the range of 100 to 1000 nM.
Consider `O=S(=O)(NCCCN1CCC(N2CCCCC2)CC1)c1ccc(-c2ccc(OC(F)(F)F)cc2)cc1` [Compound 1092], for which the EC50 was in the range of 100 to 1000 nM.
In turn, `O=C(NCCCCCCN1CCC(N2CCCCC2)CC1)c1ccc(Oc2ccccc2)cc1` [Compound 1088] registered an EC50 of 100 to 1000 nM.
In turn, `O=C(NCCCN1CCC(N2CCCCC2)CC1)c1ccc(-c2cccs2)cc1` [Compound 1023] gave a concentration for a half-maximal effect (EC50) of 100 to 1000 nM.
As to `O=C(NCCCN1CCC(Cc2ccccc2)CC1)c1ccc(Oc2ccccc2)cc1` [Compound 1042], the half-maximal effective concentration (EC50) lay within 1000 to 10000 nM.
Still for that read-out and setting: to `Cc1ccccc1-c1ccc(C(=O)NCCCN2CCC(N3CCCCC3)CC2)cc1` [Compound 1015] belongs 100 to 1000 nM; to `O=C(NC/C=C/CN1CCC(N2CCCCC2)CC1)c1ccc(-c2ccc(C(F)(F)F)cc2)cc1` [Compound 1117], 100 to 1000 nM; to `O=C(NCCCN1CCC(N2CCCCC2)CC1)c1ccc(-c2ccc(OC(F)(F)F)cc2)cc1` [Compound 1119], 100 to 1000 nM.
Still for that read-out and setting: the value for `O=C(NCCCN1CCCC1)c1ccc(C2CCCCC2)cc1` [Compound 1006] was 1000 to 10000 nM; that for `O=C(NCCCN1CCC(N2CCCCC2)CC1)c1ccc(-c2ccc3c(c2)OCO3)cc1` [Compound 1130] was 100 to 1000 nM; that for `CC(C)C1CCN(C2CCN(CCCNC(=O)c3ccc(Oc4ccccc4)cc3)CC2)CC1` [Compound 1069] was 100 to 1000 nM.

The same assay, now with this note: Hepatitis C virus, Huh7.5, 72 h.
`CC(C)OC(=O)c1c(NC(=O)NCc2c(C(F)(F)F)sc3c2CC[N+](C)(C)C3)sc2c1CCCC2` [Compound 170] had a 50% effective concentration (EC50) of under 100 nM.
The same measure, in the same setting: to `CC(C)(C)OC(=O)c1c(NC(=O)NCc2c(-c3ccc4cc[nH]c4c3)sc3c2CCNC3)sc2c1CCCC2` [Compound 201] belongs 1000 to 10000 nM; to `Cc1cc(C(=O)OC(C)(C)C)c(NC(=O)NCc2c(C(F)(F)F)sc3c2CCNC3)s1` [Compound 347], under 100 nM.
For `CCc1sc2c(c1CNC(=O)Nc1sc(C)c(C)c1C(=O)OC(C)(C)C)CCNC2` [Compound 288], the EC50 was under 100 nM.
The same measure, in the same setting: to `CCOC(=O)c1c(NC(=O)NCc2c(Br)sc3c2CCNC3)sc(C)c1C` [Compound 133] belongs under 100 nM; to `CCc1sc(NC(=O)NCc2c(C(F)(F)F)sc3c2CCN(CCN(C)C)C3)c(C(=O)OC(C)(C)C)c1C` [Compound 356], under 100 nM.
The compound `CN(C)c1cccc(-c2sc3c(c2CNC(=O)Nc2sc4c(c2C(=O)OC(C)(C)C)CCCC4)CCNC3)c1` [Compound 230] yielded an EC50 of 1000 to 10000 nM.
`CCN1CCc2c(sc(-n3cccc3)c2CNC(=O)Nc2sc3c(c2-c2c[nH]cn2)CCCC3)C1` [Compound 95] displayed an EC50 of over 10000 nM.
`O=C(NCc1c(-n2cccc2)sc2c1CCNC2)Nc1sc2c(c1C(=O)OC1CCCCC1)CCCC2` [Compound 273]: the EC50 is under 100 nM.
In turn, `CCOC(=O)c1c(NC(=O)NCc2c(-n3cccc3)sc3c2CCN(Cc2ccc(OC)cc2)C3)sc2c1CCCC2` [Compound 18] returned an EC50 of under 100 nM.
`O=C(NCc1c(C(F)(F)F)sc2c1CCNC2)Nc1sc2c(c1C(=O)OCC(F)(F)F)CCCC2` [Compound 329] returned an EC50 of under 100 nM.
The same measure, in the same setting: to `CCOC(=O)c1c(NC(=O)C(=O)NCc2c(-n3cccc3)sc3c2CCNC3)sc2c1CCCC2` [Compound 86] belongs 1000 to 10000 nM; to `CC(C)(C)OC(=O)c1c(NC(=O)NCc2c(-c3ccc(Cl)c(Cl)c3)sc3c2CCNC3)sc2c1CCCC2` [Compound 287], 100 to 1000 nM.
As to `CCOC(=O)c1c(NC(=O)NCc2c(C(F)(F)F)sc3c2CCNC3)sc(C)c1C` [Compound 132], the EC50 was under 100 nM.
Consider `CCOC(=O)c1sc2c(c1NC(=O)NCc1c(-n3cccc3)sc3c1CCN(CC)C3)CCCC2` [Compound 109], for which the EC50 was 1000 to 10000 nM.
In turn, `CCOC(=O)c1c(NC(=O)NCc2c(-n3cccc3)sc3c2CCN(CC)C3)sc(N2CCOCC2)c1C` [Compound 33] gave an EC50 of 100 to 1000 nM.
The same measure, in the same setting: the value for `CCN1CCc2c(sc(C(F)(F)F)c2CNC(=O)Nc2sc3c(c2C(=O)OC(C)(C)C)CCCCC3)C1` [Compound 303] was under 100 nM; that for `O=C(NCc1c(Br)sc2c1CCNC2)Nc1sc2c(c1C(=O)OC1CCCC1)CCCC2` [Compound 262] was under 100 nM.
With `C=CCN1CCc2c(sc(-n3cccc3)c2CNC(=O)Nc2sc3c(c2C(=O)OC(C)(C)C)CCCC3)C1` [Compound 324], the EC50 was under 100 nM.
In the case of `CC(C)(C)OC(=O)c1c(NC(=O)NCc2c(C(F)(F)F)sc3c2CCNC3)sc2c1CCC(O)C2` (centres unmarked) [Compound 349], the EC50 is under 100 nM.
Regarding `CCN1CCc2c(sc(Br)c2CNC(=O)Nc2sc3c(c2C(=O)OC(C)(C)C)CCC3)C1` [Compound 300], the EC50 was under 100 nM.
Compound `O=C(NCc1c(-n2cccc2)sc2c1CCNC2)Nc1sc2c(c1C(=O)N1CCOCC1)CCCC2` [Compound 76] gave an EC50 of 100 to 1000 nM.
The compound `CCOC(=O)c1c(NC(=O)NCc2c(-n3cccc3)sc3c2CCN(C(C)=O)C3)sc2c1CCCC2` [Compound 20] had an EC50 of under 100 nM.
Compound `CC(C)(C)OC(=O)c1c(NC(=O)NCc2c(C3CC3)sc3c2CCNC3)sc2c1CCCC2` [Compound 285] yielded an EC50 of under 100 nM.
As for `Cc1nnc(-c2c(NC(=O)NCc3c(C(F)(F)F)sc4c3CCNC4)sc(C)c2C)o1` [Compound 149], the EC50 was under 100 nM.
The compound `CCOC(=O)c1c(N/C(=N/C#N)NCc2c(-n3cccc3)sc3c2CCN(CC)C3)sc2c1CCCC2` [Compound 77] yielded an EC50 of over 10000 nM.
In turn, `Cc1noc(-c2c(NC(=O)NCc3c(-n4cccc4)sc4c3CCNC4)sc3c2CCCC3)n1` [Compound 304] registered an EC50 of 100 to 1000 nM.
Take `CCOC(=O)c1cc(C(C)C)sc1NC(=O)NCc1c(-n2cccc2)sc2c1CCN(CC)C2` [Compound 24]: the EC50 is 100 to 1000 nM.
Compound `CCOC(=O)c1c(NC(=O)NCc2c(C(F)(F)F)sc3c2CCNC3)sc2c1CC(C)CC2C` (centres unmarked) [Compound 208] returned an EC50 of under 100 nM.
For the compound `CC1Cc2c(sc(NC(=O)NCc3c(-n4cccc4)sc4c3CCN(C)C4)c2C(=O)OC(C)(C)C)C(C)C1` (centres unmarked) [Compound 293], the EC50 was under 100 nM.
The compound `COc1cccc(-c2sc3c(c2CNC(=O)Nc2sc4c(c2C(=O)OC(C)(C)C)CCCC4)CCNC3)c1` [Compound 228] had an EC50 of 100 to 1000 nM.
On to `CC1CCCc2sc(NC(=O)NCc3c(-n4cccc4)sc4c3CCN(C)C4)c(C(=O)OC(C)(C)C)c21` (centres unmarked) [Compound 291], for which the EC50 is under 100 nM.
Still for that read-out and setting: the value for `CC(C)(C)OC(=O)c1c(NC(=O)NCc2c(-c3ccnc(F)c3)sc3c2CCNC3)sc2c1CCCC2` [Compound 310] was under 100 nM; that for `CCN1CCc2c(sc(-n3cccc3)c2CNC(=O)Nc2sc3c(c2C(=O)OC(C)(C)C)CCC3)C1` [Compound 114] was under 100 nM; that for `CCOC(=O)c1c(NC(=O)NCc2c(-n3cccc3)sc3c2CCNC3)sc2c1CCCCC2` [Compound 113] was 100 to 1000 nM.
On to `CCc1sc(NC(=O)NCc2c(C(F)(F)F)sc3c2CCNC3)c(C(=O)OC(C)(C)C)c1C` [Compound 270], for which the EC50 was under 100 nM.
